Experiments:
Experiment in all cases: agar diffusion test (Test System II, multi-resistant germs)
S. epidermidis 847 = type: cell-based, Staphylococcus epidermidis; design: key: r = resistant (no detectable zone of inhibition)
How it was run: (§1)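 Compounds, dissolved in methanol or distilled water, were loaded onto paper discs at 10, 50 and 100 μg and placed three per plate on Müller-Hinton agar II spread with a McFarland 0.5 saline suspension. After 18-20 h at 37 °C, inhibition zone diameters were measured.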

S. epidermidis 1068 = type: cell-based, Staphylococcus epidermidis; design: key: r = resistant (no detectable zone of inhibition)
How it was run: as §1

S. epidermidis 563 = type: cell-based, Staphylococcus epidermidis; design: key: r = resistant (no detectable zone of inhibition)
How it was run: as §1

S. epidermidis 1071 = type: cell-based, Staphylococcus epidermidis; design: key: r = resistant (no detectable zone of inhibition)
How it was run: as §1

E. faecalis 945 = type: cell-based, Enterococcus faecalis; design: key: r = resistant (no detectable zone of inhibition)
How it was run: as §1

S. aureus 38418 = type: cell-based, Staphylococcus aureus
How it was run: as §1

S. aureus ATCC 6538 = type: cell-based, Staphylococcus aureus
How it was run: as §1

Compound: 7-{2-2-(2-hydroxyethylcarbamoyl)-3,6-dioxyocyclohexa-1,4-dienylamino]-2-(4-hydroxyphenyl)-acetylamino}-desacetoxycephalosporanic acid [1a]
- Diameter of zone of inhibition (S. epidermidis 847; Quantity n [mol] 0.019): r
- Diameter of zone of inhibition (S. epidermidis 847; Quantity n [mol] 0.1): 16 mm
- Diameter of zone of inhibition (S. epidermidis 847; Quantity n [mol] 0.19): 20 mm
- Diameter of zone of inhibition (S. epidermidis 1068; Quantity n 0.019): r
- Diameter of zone of inhibition (S. epidermidis 1068; Quantity n 0.1): 10 mm
- Diameter of zone of inhibition (S. epidermidis 1068; Quantity n 0.19): 16 mm
- Diameter of zone of inhibition (S. epidermidis 563; Quantity n 0.019): r
- Diameter of zone of inhibition (S. epidermidis 563; Quantity n 0.1): 10 mm
- Diameter of zone of inhibition (S. epidermidis 563; Quantity n 0.19): 16 mm
- Diameter of zone of inhibition (S. epidermidis 1071; Quantity n 0.019): r
- Diameter of zone of inhibition (S. epidermidis 1071; Quantity n 0.1): 18 mm
- Diameter of zone of inhibition (S. epidermidis 1071; Quantity n 0.19): 20 mm
- Diameter of zone of inhibition (E. faecalis 945; Quantity n 0.019): r
- Diameter of zone of inhibition (E. faecalis 945; Quantity n 0.1): r
- Diameter of zone of inhibition (E. faecalis 945; Quantity n 0.19): r
- Diameter of zone of inhibition (S. aureus 38418; Quantity n [mol] 0.019): 14 mm
- Diameter of zone of inhibition (S. aureus 38418; Quantity n [mol] 0.1): 24 mm
- Diameter of zone of inhibition (S. aureus 38418; Quantity n [mol] 0.19): 26 mm
- Diameter of zone of inhibition (S. aureus ATCC 6538; Quantity n 0.019): 20 mm
- Diameter of zone of inhibition (S. aureus ATCC 6538; Quantity n 0.1): 28 mm
- Diameter of zone of inhibition (S. aureus ATCC 6538; Quantity n 0.19): 30 mm

Compound: NC(=O)C1=C(NC(C(=O)NC2C(=O)N3C(C(=O)O)=C(Cl)CSC23)c2ccccc2)C(=O)C=CC1=O (stereo not drawn) [1j, 3-chlorine-7-[2-(2-carbamoyl-3,6-dioxocyclohexa-1,4-dienylamino)-2-phenyl-acetylamino]-8-oxo-1-thia-5-azabicyclo[4.2.0]oct-3-en-4-carboxylic acid]
- Diameter of zone of inhibition (S. epidermidis 847; Quantity n [mol] 0.02): 10 mm
- Diameter of zone of inhibition (S. epidermidis 847; Quantity n [mol] 0.1): 20 mm
- Diameter of zone of inhibition (S. epidermidis 847; Quantity n [mol] 0.2): 24 mm
- Diameter of zone of inhibition (S. epidermidis 1068; Quantity n 0.02): 16 mm
- Diameter of zone of inhibition (S. epidermidis 1068; Quantity n 0.1): 22 mm
- Diameter of zone of inhibition (S. epidermidis 1068; Quantity n 0.2): 26 mm
- Diameter of zone of inhibition (S. epidermidis 563; Quantity n 0.02): 20 mm
- Diameter of zone of inhibition (S. epidermidis 563; Quantity n 0.1): 26 mm
- Diameter of zone of inhibition (S. epidermidis 563; Quantity n 0.2): 32 mm
- Diameter of zone of inhibition (S. epidermidis 1071; Quantity n 0.02): 18 mm
- Diameter of zone of inhibition (S. epidermidis 1071; Quantity n 0.1): 26 mm
- Diameter of zone of inhibition (S. epidermidis 1071; Quantity n 0.2): 28 mm
- Diameter of zone of inhibition (E. faecalis 945; Quantity n 0.02): r
- Diameter of zone of inhibition (E. faecalis 945; Quantity n 0.1): r
- Diameter of zone of inhibition (E. faecalis 945; Quantity n 0.2): r
- Diameter of zone of inhibition (S. aureus 38418; Quantity n [mol] 0.02): 22 mm
- Diameter of zone of inhibition (S. aureus 38418; Quantity n [mol] 0.1): 30 mm
- Diameter of zone of inhibition (S. aureus 38418; Quantity n [mol] 0.2): 34 mm
- Diameter of zone of inhibition (S. aureus ATCC 6538; Quantity n 0.02): 28 mm
- Diameter of zone of inhibition (S. aureus ATCC 6538; Quantity n 0.1): 34 mm
- Diameter of zone of inhibition (S. aureus ATCC 6538; Quantity n 0.2): 38 mm

Compound: 7-[2-(2-ethoxycarbonyl-3,6-dioxocyclohexa-1,4-dienylamino)-2-(4-hydroxyphenyl)-acetylamino]-desacetoxycephalosporanic acid [1d]
- Diameter of zone of inhibition (S. epidermidis 847; Quantity n [mol] 0.029): r
- Diameter of zone of inhibition (S. epidermidis 847; Quantity n [mol] 0.14): 10 mm
- Diameter of zone of inhibition (S. epidermidis 847; Quantity n [mol] 0.29): 14 mm
- Diameter of zone of inhibition (S. epidermidis 1068; Quantity n 0.029): r
- Diameter of zone of inhibition (S. epidermidis 1068; Quantity n 0.14): 12 mm
- Diameter of zone of inhibition (S. epidermidis 1068; Quantity n 0.29): 14 mm
- Diameter of zone of inhibition (S. epidermidis 563; Quantity n 0.029): r
- Diameter of zone of inhibition (S. epidermidis 563; Quantity n 0.14): 12 mm
- Diameter of zone of inhibition (S. epidermidis 563; Quantity n 0.29): 18 mm
- Diameter of zone of inhibition (S. epidermidis 1071; Quantity n 0.029): r
- Diameter of zone of inhibition (S. epidermidis 1071; Quantity n 0.14): 14 mm
- Diameter of zone of inhibition (S. epidermidis 1071; Quantity n 0.29): 18 mm
- Diameter of zone of inhibition (E. faecalis 945; Quantity n 0.029): r
- Diameter of zone of inhibition (E. faecalis 945; Quantity n 0.14): r
- Diameter of zone of inhibition (E. faecalis 945; Quantity n 0.29): r
- Diameter of zone of inhibition (S. aureus 38418; Quantity n [mol] 0.029): 10 mm
- Diameter of zone of inhibition (S. aureus 38418; Quantity n [mol] 0.14): 20 mm
- Diameter of zone of inhibition (S. aureus 38418; Quantity n [mol] 0.29): 24 mm
- Diameter of zone of inhibition (S. aureus ATCC 6538; Quantity n 0.029): 14 mm
- Diameter of zone of inhibition (S. aureus ATCC 6538; Quantity n 0.14): 22 mm
- Diameter of zone of inhibition (S. aureus ATCC 6538; Quantity n 0.29): 26 mm

Compound: CC1=C(C(=O)O)N2C(=O)C(NC(=O)C(NC3=C(C(N)=O)C(=O)C=CC3=O)c3ccccc3)C2SC1 (stereo not drawn) [1f, 7-[2-(2-carbamoyl-3,6-dioxocyclohexa-1,4-dienylamino)-2-phenyl-acetylamino]-desacetoxycephalosporanic acid]
- Diameter of zone of inhibition (S. epidermidis 847; Quantity n [mol] 0.02): r
- Diameter of zone of inhibition (S. epidermidis 847; Quantity n [mol] 0.1): 16 mm
- Diameter of zone of inhibition (S. epidermidis 847; Quantity n [mol] 0.2): 20 mm
- Diameter of zone of inhibition (S. epidermidis 1068; Quantity n 0.02): r
- Diameter of zone of inhibition (S. epidermidis 1068; Quantity n 0.1): 12 mm
- Diameter of zone of inhibition (S. epidermidis 1068; Quantity n 0.2): 16 mm
- Diameter of zone of inhibition (S. epidermidis 563; Quantity n 0.02): r
- Diameter of zone of inhibition (S. epidermidis 563; Quantity n 0.1): 18 mm
- Diameter of zone of inhibition (S. epidermidis 563; Quantity n 0.2): 24 mm
- Diameter of zone of inhibition (S. epidermidis 1071; Quantity n 0.02): 8 mm
- Diameter of zone of inhibition (S. epidermidis 1071; Quantity n 0.1): 16 mm
- Diameter of zone of inhibition (S. epidermidis 1071; Quantity n 0.2): 18 mm
- Diameter of zone of inhibition (E. faecalis 945; Quantity n 0.02): r
- Diameter of zone of inhibition (E. faecalis 945; Quantity n 0.1): r
- Diameter of zone of inhibition (E. faecalis 945; Quantity n 0.2): r
- Diameter of zone of inhibition (S. aureus 38418; Quantity n [mol] 0.02): 14 mm
- Diameter of zone of inhibition (S. aureus 38418; Quantity n [mol] 0.1): 24 mm
- Diameter of zone of inhibition (S. aureus 38418; Quantity n [mol] 0.2): 30 mm
- Diameter of zone of inhibition (S. aureus ATCC 6538; Quantity n 0.02): 20 mm
- Diameter of zone of inhibition (S. aureus ATCC 6538; Quantity n 0.1): 30 mm
- Diameter of zone of inhibition (S. aureus ATCC 6538; Quantity n 0.2): 34 mm

From patent US20110040086A1, “Novel Beta-Lactam Antibiotics, Methods for Their Production, and Their Use” (DRITTE PATENTPORTFOLIO BETEILIGUNGSGESELLSCHAFT MB, priority 2007, published 2011)
